Source: patent US5310667A (priority 1989, dated 1994)

Legend:
[1] = molecular target: T1, pMON8186 encoded petunia EPSP synthase variant (glycine (101) to alanine and glycine (144) to aspartic acid) (Petunia hybrida, UniProt P11043, G173A/G216D); assay: EPSP synthase kinetic constants (appKi glyphosate, appKm PEP); assay type: biochemical
T1 construct: GGT codon for glycine (144) in the mature petunia EPSP synthase; made in house; host or cells: E. coli SR481
Method: The balance of the #215 preculture (~750 μl) was used to inoculate 2 ml of MOPS medium containing 50 μg/ml carbenicillin and was shaken overnight at 37° C. to reach saturation. Plasmid DNA was isolated from an aliquot of the saturated culture using an alkaline lysis procedure. The plasmid was designated pMON8186. An aliquot of the pMON8186 plasmid was used to transform the E. coli host SR481 (described above) and reselected on MOPS medium containing 10 mM glyphosate and 50 μg/ml carbenicillin. A single glyphosate resistant colony of pMON8186 was picked off the selection plate and used to inoculate 3 ml of 2XYT bacterial medium containing 50 μg/ml carbenicillin. The culture was then aerated on rotating wheel at 37° C. until saturated, then it was used to inoculate a larger 500 ml culture. The large culture was grown to saturation by shaking it overnight at 37° C. in a water bath. The bacterial cells were lysed and the extracts were assayed for EPSPS activity.
Specifically, the bacterial cell paste was washed twice with 0.9% saline, suspended in buffer (100 mM Tris-HCl, 5 mM benzamidine HCl) and passed twice through the French Pressure Cell at 1000 psi. The cell extract was separated from the cells by centrifuging at 15,000 x gravity for 10 mins. at 5° C. It was desalted using Sephadex G-50 (Pharmacia, Piscataway, N.J.). The desalted extract was assayed for EPSP synthase activity as follows:
To an assay mix (40 μl) containing shikimate-3-phosphate (2 mM), ^14 C-phosphoenolpyruvate (1 mM, 1.2 mCi/mmol), ammonium molybdate (0.1 mM), potassium fluoride (5 mM) in 50 mM HEPES-KOH, pH 7, was added the extract and incubated at 25° C. for 2 mins. The reaction was quenched by the addition of 50 μl of 50 μl of 90% ethanol/0.1M acetic acid, pH 4.5. […] The radioactivity of the eluent was monitored using a Radiomatic Flo-One Beta Instrument. […] The EPSP synthase activity was determined by measurement of the conversion of ^14 C-PEP to ^14 C-EPSP synthase, both of which are resolved under the above conditions of chromatography. The protein content of the extract was determined by the method of Bradford (Biorad Labs, Calif.). The specific activity of the extract is expressed as nanomoles of EPSP synthase formed/min/mg protein.
Kinetic constants (appKm PEP and appKi glyphosate) were determined for EPSP synthase as described below. Substrate kinetic parameters were determined at pH 7.0 in 50 mM HEPES (N-[2-hydroxyethyl]piperazine-N'-[2-ethanesulfonic acid]) buffer in the presence of 2 mM S3P and varying amounts of ^14 C-PEP (10 μM-400 μM), for 2.0 minutes at 25° C. Reactions were quenched with 100 mM Na Acetate in ethanol, pH 4.5, centrifuged and analyzed for product EPSP formation by HPLC with flow radioactivity detection. […]

[2] = molecular target: T2, variant petunia EPSP synthase with glycine (101) to alanine and glycine (144) to asparagine substitutions (Petunia hybrida, UniProt P11043, G173A/G216N); assay: EPSP synthase kinetic constants (Ki glyphosate, Km PEP); assay type: biochemical
T2 construct: GGT codon for glycine (144) in the mature petunia EPSP synthase
Method: (§1) Kinetic constants (appKm PEP and appKi glyphosate) were determined for EPSP synthase as described below. Substrate kinetic parameters were determined at pH 7.0 in 50 mM HEPES (N-[2-hydroxyethyl]piperazine-N'-[2-ethanesulfonic acid]) buffer in the presence of 2 mM S3P and varying amounts of ^14 C-PEP (10 μM-400 μM), for 2.0 minutes at 25° C. Reactions were quenched with 100 mM Na Acetate in ethanol, pH 4.5, centrifuged and analyzed for product EPSP formation by HPLC with flow radioactivity detection. HPLC conditions were 0.35 MKPi, pH 6.5, on a Synchropak AX100 column at 1.0 ml/min.

[3] = molecular target: T3, petunia EPSP synthase glycine (101) to alanine variant (Petunia hybrida, UniProt P11043, G173A); assay: EPSP synthase kinetic constants (appKi glyphosate, appKm PEP); assay type: biochemical; conditions: relative to wild type
T3 construct: made in house; host or cells: E. coli
Method: To an assay mix (40 μl) containing shikimate-3-phosphate (2 mM), ^14 C-phosphoenolpyruvate (1 mM, 1.2 mCi/mmol), ammonium molybdate (0.1 mM), potassium fluoride (5 mM) in 50 mM HEPES-KOH, pH 7, was added the extract and incubated at 25° C. for 2 mins. The reaction was quenched by the addition of 50 μl of 50 μl of 90% ethanol/0.1M acetic acid, pH 4.5. 70 μl of the reaction mixture was loaded on a SynchroPak AX100 HPLC column (0.4×25 cm) and the column was eluted with 0.5M potassium phosphate, pH 5.5 at 1 ml/min. The radioactivity of the eluent was monitored using a Radiomatic Flo-One Beta Instrument. (Radiomatics, Fla.). The EPSP synthase activity was determined by measurement of the conversion of ^14 C-PEP to ^14 C-EPSP synthase, both of which are resolved under the above conditions of chromatography. The protein content of the extract was determined by the method of Bradford (Biorad Labs, Calif.). The specific activity of the extract is expressed as nanomoles of EPSP synthase formed/min/mg protein.
as §1

[4] = substrate: C=C(OP(=O)(O)O)C(=O)O; assay: purified protein, by the assay type; conditions: 25.0 °C

T1 sequence (P11043 73-516 G173A/G216D): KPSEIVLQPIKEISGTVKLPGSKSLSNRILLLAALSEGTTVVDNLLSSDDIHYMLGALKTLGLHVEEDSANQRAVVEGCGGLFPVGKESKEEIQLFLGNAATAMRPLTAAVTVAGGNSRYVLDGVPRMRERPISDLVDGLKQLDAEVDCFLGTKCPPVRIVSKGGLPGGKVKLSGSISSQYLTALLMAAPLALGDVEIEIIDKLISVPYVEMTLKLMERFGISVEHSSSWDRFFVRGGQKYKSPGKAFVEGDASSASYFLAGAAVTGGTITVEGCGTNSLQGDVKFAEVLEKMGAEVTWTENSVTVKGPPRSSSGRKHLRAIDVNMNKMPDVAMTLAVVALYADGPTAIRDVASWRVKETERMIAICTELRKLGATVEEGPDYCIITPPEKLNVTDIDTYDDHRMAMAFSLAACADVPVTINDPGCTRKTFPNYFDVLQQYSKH
T2 sequence (P11043 73-516 G173A/G216N): as the sequence (P11043 73-516 G173A/G216D) above, with D144N counted along it
T3 sequence (P11043 73-516 G173A): as the sequence (P11043 73-516 G173A/G216D) above, with D144G counted along it

Which results are given for C=C(OP(=O)(O)O)C(=O)O [PEP, phosphoenolpyruvate]?
Km for PEP [1]: 40 µM; Km for PEP relative to the glycine (101) to alanine variant [1]: more than four fold lower; Km for PEP [2]: 91 µM

Which “binding constant for shikimate-3-phosphate (S3P)” value [3] does the source give for O=C(O)C1=C[C@@H](OP(=O)(O)O)[C@@H](O)[C@H](O)C1 [S3P, shikimate-3-phosphate] here?
The value was “not affected”.

B1: wild type petunia EPSP synthase (Petunia x hybrida) (protein)
chain: KPSEIVLQPIKEISGTVKLPGSKSLSNRILLLAALSEGTTVVDNLLSSDDIHYMLGALKTLGLHVEEDSANQRAVVEGCGGLFPVGKESKEEIQLFLGNAGTAMRPLTAAVTVAGGNSRYVLDGVPRMRERPISDLVDGLKQLGAEVDCFLGTKCPPVRIVSKGGLPGGKVKLSGSISSQYLTALLMAAPLALGDVEIEIIDKLISVPYVEMTLKLMERFGISVEHSSSWDRFFVRGGQKYKSPGKAFVEGDASSASYFLAGAAVTGGTITVEGCGTNSLQGDVKFAEVLEKMGAEVTWTENSVTVKGPPRSSSGRKHLRAIDVNMNKMPDVAMTLAVVALYADGPTAIRDVASWRVKETERMIAICTELRKLGATVEEGPDYCIITPPEKLNVTDIDTYDDHRMAMAFSLAACADVPVTINDPGCTRKTFPNYFDVLQQYSKH
For B1, which Km [4] is on record?
The Km was 5.2 µM.
